B1: RNase A: 13.7 kDa enzyme capable of degrading RNA chains (protein, UniProt P61823 27-150, looked up)
Ribonuclease pancreatic: KETAAAKFERQHMDSSTSAASSSNYCNQMMKSRNLTKDRCKPVNTFVHESLADVQAVCSQKNVACKNGQTNCYQSYSTMSITDCRETGSSKYPNCAYKTTQANKHIIVACEGNPYVPVHFDASV

System: HeLa cells
Assay: Functional protein delivery (MTT with PN/enzyme complexes)
Assay type: cell-based
Settings: no carrier
Protocol: Final concentrations of 40, 20, 10, and 5 μM were added into the complete media by dilution of the polymer stock solutions. After addition of the samples, cells were incubated for 18 h prior to treatment with 10 μL of methylthiazole tetrazolium (MTT) (5 mg/mL in PBS) and incubated for 4 h at 37° C. After incubation, 200 μL of medium was gently removed and 100 μL of biological grade DMSO was added to solubilize the purple formazan crystals. Absorbance was measured by microwell plate reader. Cell viability was determined as a function of absorbance of each sample relative to control wells. All measurements represent the average of three independent measurements+/−standard deviation.
MTT assay was performed with PN/enzyme complexes are described previously. In short, serial dilutions of saporin or RNase were prepared and complexes with various PNs. For serum-containing media, complexes were added to HeLa cells and incubated overnight prior to MTT treatment. For serum-free experiments, complexes were added in DMEM for 4 h and the media was replaced with complete media overnight prior to MTT treatment.

Molecule	toxicity of free enzyme on HeLa cells
Saporin	no toxicity
B1	no toxicity

Source: patent US11801228B2, “Modified guanidine-containing polymers for biologic delivery” (THE FLORIDA INTERNATIONAL UNIVERSITY BOARD OF TRUSTEES, priority 2022, dated 2023)
